# Measured values taken from ChEMBL document CHEMBL3856210, “Discovery of in vitro antitubercular agents through in silico ligand-based approaches” (Eur J Med Chem, 2016).
# Experiment: Antitubercular activity against Mycobacterium tuberculosis H37Ra ATCC 25177 after 21 days by agar dilution method
# Type: functional
# Conditions: ATCC 25177, 504 h
row,SMILES,MIC [µg/mL]
1,COc1ccc(-n2c(-c3ccc(C)cc3)cc(CN3CCSCC3)c2C)cc1,1
2,CCc1ccc(-c2cc(CN3CCSCC3)c(C)n2-c2ccc(OC)cc2)cc1,0.5
3,CSc1ccc(-n2c(-c3ccc(C)cc3)cc(CN3CCSCC3)c2C)cc1,1
4,CSc1ccccc1-n1c(-c2ccc(F)cc2)cc(CN2CCSCC2)c1C,8
5,CSc1ccc(-c2cc(CN3CCSCC3)c(C)n2-c2ccc(F)cc2)cc1,< 0.125
6,Cc1nn(-c2ccc(Cl)cc2)c(O)c1C(=O)c1ccccc1,25
7,O=S(=O)(Nc1nc2ccccc2[nH]1)c1ccc(Cl)cc1,32
8,Cc1nn(-c2ccccc2)c(O)c1C(=O)c1ccc([N+](=O)[O-])cc1,> 100
9,CC(C)c1[nH]n(-c2ccc(Cl)cc2)c(=O)c1C(=O)c1ccc(Cl)cc1,32
10,Cc1[nH]n(-c2ccc(Br)cc2)c(=O)c1C(=O)c1ccc(Cl)cc1,4
11,O=C(c1ccc(Cl)cc1)c1c(C(F)(F)F)[nH]n(-c2ccc(Cl)cc2)c1=O,> 64
12,CC(C)c1[nH]n(-c2ccccc2)c(=O)c1C(=O)c1ccc(Cl)cc1,64
13,O=C(c1ccc(Cl)cc1)c1c(-c2ccccc2)[nH]n(-c2ccc(Cl)cc2)c1=O,16
14,Cc1[nH]n(-c2ccccc2)c(=O)c1C(=O)c1cccc(F)c1,25
15,O=C(O[C@H](Cn1ccnc1)c1ccc(Cl)cc1)N1CCN(c2ccc(Cl)cc2)CC1,16
16,CC(C)c1ccc(NC(=O)O[C@H](Cn2ccnc2)c2ccc(F)cc2)cc1,16
17,O=C(NCCCn1ccnc1)O[C@H](Cn1ccnc1)c1ccc(F)cc1,32
18,O=C(Nc1ccc(Sc2ccc([N+](=O)[O-])cc2)cc1)O[C@H](Cn1ccnc1)c1ccc(Cl)cc1,16
19,Cc1nn2c(=O)c3c([nH]c2c1-c1ccc(Cl)cc1)CCC3,8
20,CCCc1cc(=O)n2nc(C)c(-c3ccc(Cl)cc3)c2[nH]1,8
21,Cc1cc(=O)n2nc(C)c(-c3ccc(Cl)cc3)c2[nH]1,32
22,O=C(O[C@H](Cn1ccnc1)c1ccc(F)cc1)N1CCN(c2ccc([N+](=O)[O-])cc2)CC1,32
23,Cc1cc(/C=N\OCc2ccccc2)c(C)n1-c1ccc(F)cc1,25
24,CCC/N=C(\c1ccc(Cl)cc1)c1c(C)nn(-c2ccc(Cl)cc2)c1O,> 100

row,SMILES,MIC [µg/mL]
1,Clc1cccc(CSc2nnc(-c3ccc(Cl)cc3Cl)o2)c1,32
2,O=C(O[C@H](Cn1ccnc1)c1ccc(F)cc1)N1CCN(C(=O)c2ccco2)CC1,64
3,CCOc1ccc(NC(=O)C(Cc2ccccc2)N2C(=O)c3ccccc3C2=O)cc1 (centres undefined),32
4,CCN(Cc1cc2cc(C)c(C)cc2[nH]c1=O)c1ccc(OC)cc1C,> 64
5,Cc1cc(/C=N\OCc2cccc(F)c2)c(C)n1-c1ccc(F)cc1,> 100
6,O=C1NN(c2ccc(Cl)cc2)C(=O)/C1=C/c1ccc(Cl)cc1Cl,32
7,O=C(O[C@H](Cn1ccnc1)c1ccc(F)cc1)N1CCN(c2ccc(Cl)c(Cl)c2)CC1,16
8,O=C(O[C@H](Cn1ccnc1)c1ccc([N+](=O)[O-])cc1)N1CCN(c2ccc(Cl)c(Cl)c2)CC1,16
9,CCCc1cc(=O)n2nc(C)c(-c3ccc(OC)cc3)c2[nH]1,32
10,Cc1cc(/C=N\OCc2ccc(Cl)cc2)c(C)n1-c1ccc(F)cc1,50
11,CN1C(=O)C2C(N=C(Oc3ccc(Cl)cc3)N2Cc2cccc(F)c2)N(C)C1=O (centres undefined),64
12,Cc1nn(-c2ccccc2)c(O)c1C(=O)c1ccc2ccccc2c1,25
13,O=C(CSc1nc2cc(Cl)ccc2s1)c1ccc(Cl)cc1,32
14,O=C(O[C@H](Cn1ccnc1)c1cccc2ccccc12)N1CCN(c2ccc(Cl)c(Cl)c2)CC1,16
15,C=CCN1CC(c2nc3ccccc3n2Cc2cccc(Cl)c2)CC1=O (centres undefined),32
16,COc1ccc(CO/N=C\c2cc(C)n(-c3ccc(F)cc3)c2C)cc1,> 100
17,Cc1ccc(C2NC(=O)NC(O)(C(F)(F)F)C2C(=O)c2ccc(Cl)cc2)cc1 (centres undefined),32
18,O=C1C/C(=N\c2ccc(Cl)cc2)SC1Cc1ccc(Cl)cc1 (centres undefined),32
19,Cc1nn(C(C)CNC(=O)C2(c3ccc(Cl)cc3)CCOCC2)c(C)c1C (centres undefined),64
20,O=C1S/C(=C\c2ccc(-c3cccc(Cl)c3Cl)o2)C(=O)N1c1ccc(Cl)cc1,64
21,O=C(O[C@H](Cn1ccnc1)c1ccccc1)N1CCN(c2ccc(Cl)c(Cl)c2)CC1,16
22,Cc1nn(-c2ccc(Cl)cc2)c(O)c1/C(=N/C1CC1)c1ccc(Cl)cc1,> 100
23,C=C(C)Cn1c(S)nnc1CCn1c2ccc(Cl)cc2c2cc(Cl)ccc21,32
24,COc1ccc(-n2c(-c3ccc(Br)cc3)cc3c2CC(C)(C)CC3=O)c(OC)c1,64

row,SMILES,MIC [µg/mL]
1,CCOC(=O)c1cnc2c(Cl)c(Cl)ccc2c1NCc1cccnc1,32
2,Cc1nn(-c2ccccc2)c(O)c1/C(=N/Cc1ccccc1)c1ccc(Cl)cc1,> 100
3,CCCOc1ccc2c(c1)sc1ncc(NC(=O)c3ccc(Cl)cc3)c(=O)n12,32
4,O=C(O[C@H](Cn1ccnc1)c1ccc(Cl)cc1Cl)N1CCN(c2ccc(Cl)c(Cl)c2)CC1,8
5,O=C(C1=C(O)C(=O)N(c2ccccc2)C1c1ccccc1F)c1ccc(Cl)cc1 (centres undefined),32
6,C=CCn1cnc2sc(C)c(-c3ccc(Cl)cc3)c2c1=O,32
7,O=C(O[C@H](Cn1ccnc1)c1ccc(Cl)cc1)N1CCN(C(=O)c2ccco2)CC1,64
8,Cc1nn(-c2ccccc2)c(O)c1C(=O)c1cccs1,50
9,Cc1nn(-c2ccccc2)c(O)c1C(=O)/C=C/c1ccccc1,50
10,Cc1nn(C(=O)c2cccc([N+](=O)[O-])c2)c(C)c1Sc1ccc(Cl)cc1,32
11,O=C(O[C@H](Cn1ccnc1)c1ccc(-c2ccccc2)cc1)N1CCN(c2ccc(Cl)c(Cl)c2)CC1,16
12,Clc1ccc(C2=CSC3=NN=C(SCc4ccccn4)C23)cc1 (centres undefined),64
13,Cc1cc(/C=N\OCc2ccc([N+](=O)[O-])cc2)c(C)n1-c1ccc(F)cc1,> 100
14,Cc1nn(-c2ccccc2)c(O)c1C(=O)c1cccnc1,> 100
15,Cc1nn(-c2ccc(Cl)cc2)c(O)c1/C(=N/OCc1ccccc1)c1ccc(Cl)cc1,> 100
16,Cc1ccc(-n2c(C)cc(/C=N\OCc3ccccc3)c2C)cc1,> 100
17,COCc1cc(=O)n2nc(C)c(-c3ccccc3OC)c2[nH]1,32
18,CN(C(=O)c1cccc(Cl)c1)c1nc(-c2ccccc2)cs1,64
19,COC(=O)C1=C(C)N(Cc2ccc(C)cc2)C(=O)/C1=C\c1ccc(C)cc1OC,32
20,COc1ccc(-n2c(SC)nnc2-c2ccc(Cl)cc2)c(OC)c1,32
21,Cc1nn(-c2ccc(F)cc2)c(OC(=O)c2ccccc2)c1C(=O)c1ccccc1,25
22,CO/N=C(\c1ccc(Cl)cc1)c1c(C)nn(-c2ccc(Cl)cc2)c1O,25
23,CO/N=C(\c1ccc(Cl)cc1)c1c(C)nn(-c2ccccc2)c1O,25
24,Cc1ccccc1C(=O)c1c(C)nn(-c2ccccc2)c1O,50

row,SMILES,MIC [µg/mL]
1,O=C(O[C@H](Cn1ccnc1)c1ccc(F)cc1)N1CCN(c2ccc(Cl)cc2)CC1,16
2,COc1ccc(C(CNS(=O)(=O)N2CCCC2)c2c[nH]c3ccccc23)cc1 (centres undefined),32
3,O=C(Cc1noc(-c2ccncc2)n1)Nc1cc(Cl)cc(Cl)c1,32
4,Cc1nn(-c2ccccc2)c(O)c1/C(=N/OCc1ccccc1)c1ccc(Cl)cc1,> 100
5,Cc1cc(/C=N\OCc2ccccc2)c(C)n1-c1ccccc1,> 100
6,Cc1ccc(C(=O)Oc2c(C(=O)c3ccc(C)cc3)c(C)nn2-c2ccccc2)cc1,> 100
7,O=C(O[C@H](Cn1ccnc1)c1ccc(Cl)cc1)c1cccc(C(F)(F)F)c1,16
8,Cc1ncc(-c2cc(=O)n3nc(C)c(-c4ccc(Cl)cc4)c3[nH]2)c(C)n1,2
9,C/C(=N\OC(=O)COc1ccc(Cl)cc1Cl)c1ccc(Br)cc1,32
10,Cc1ccc(-n2nc(C)c(C(=O)c3ccc(Cl)cc3)c2O)cc1,16
11,Cc1c(C(=O)c2ccc(Cl)cc2)c(=O)n(-c2ccc(Cl)cc2)n1Cc1ccc(F)cc1,32
12,Cc1c(C(=O)c2ccc(Cl)cc2)c(=O)n(-c2ccc(Cl)cc2)n1Cc1ccccc1,16
13,Cc1c(C(=O)c2ccc(Cl)cc2)c(=O)n(-c2ccccc2)n1Cc1ccc(F)cc1,32
14,Cc1c(C(=O)c2ccc(Cl)cc2)c(=O)n(-c2ccc(Cl)cc2)n1Cc1ccc([N+](=O)[O-])cc1,32
15,COCc1cc(=O)n2nc(C)c(-c3ccc(Cl)cc3)c2[nH]1,16
16,Cc1c(C(=O)c2ccc(Cl)cc2)c(=O)n(-c2ccccc2)n1Cc1ccc([N+](=O)[O-])cc1,> 32
17,Cc1c(C(=O)c2ccc(Cl)cc2)c(=O)n(-c2ccccc2)n1Cc1ccccc1,> 64
18,CCc1c(CN2CCSCC2)cc(-c2ccc(F)cc2)n1-c1ccccc1F,2
19,CCc1c(CN2CCSCC2)cc(-c2ccccc2F)n1-c1ccccc1F,4
20,CCc1c(CN2CCSCC2)cc(-c2ccccc2)n1-c1ccccc1,2
21,CCc1c(CN2CCN(C)CC2)cc(-c2ccc(Cl)cc2)n1-c1ccc(Cl)cc1,2
22,CCc1c(CN2CCSCC2)cc(-c2ccccc2)n1-c1ccc(F)cc1,2
